# Data: patent US20260001928A1 (CORTERIA PHARMACEUTICALS, priority 2022, published 2026)
# pEC50: −log10 of the molar value. *1 amine or outer side, *2 acyl side, *3 side chain or, on linkers, in order; H or OH if unused. Where a SMILES comes first, the peptide text is derived from it. Side-chain parts run from the residue outwards. [ ]: non-standard residue; d: D form. The star is where a group is joined. C16 diacid = O=C(O)CCCCCCCCCCCCCCC(=O)*; γGlu = O=C(O)[C@H](CCC(=O)[*:2])N[*:1]; Aib = CC(C)(N)C(=O)O
# System: human LAD2 cells
# Assay type: cell-based
# Method: LAD2 cells (20000 cells/well, 96-well plates and 10,000 cells/well in 384-well plates) were incubated with compounds for 30 min. The R-hexosaminidase released into the supernatants and in cell lysates was quantified using the fluorogenic substrate 4-methylumbelliferyl-N-acetyl-b-D-glucosaminide.
# On the day of the assay, the lyophilized peptides were dissolved in DMSO and/or PBS 1× pH 7.4, to obtain stock solutions. The stock solutions were used to prepare working serial dilutions to have final concentrations in assay ranging from 50, 100 or 300 to 0.1 or 0.001 μM. Each peptide was tested in biological duplicates. When compounds were dissolved in DMSO, the final solvent concentration in assay was 0.5% (v/v).
# The percentage of degranulation, expressed as % of R-hexosaminidase release, was calculated by dividing the fluorescence signal of the supernatant by the sum of the signals from the supernatant and cell pellet (lysed with Triton X-100, final 1%) and multiplying by 100.
# Dose-response curves were generated by plotting the % of R-hexosaminidase release versus total release of cells treated with triton (y-axis) against the concentrations of peptides tested (x-axis). The Mast Cell Degranulation (MCD) EC50 values and standard errors were calculated using XLfit 5.5.0.5 based on the following equation:
# 4 Parameter Sigmoidal Model: f=(A+((B−A)/(1+((C/x)^D))))
# where A=Emin, B=Emax, C=EC50 and D=slope
row,pEC50,SMILES
1,< 4.30,CC[C@H](C)[C@H](NC(C)=O)C(=O)N[C@H](C(=O)N[C@@H](CC(C)C)C(=O)N[C@@H](CO)C(=O)N[C@@H](CC(C)C)C(=O)N[C@@H](CC(=O)O)C(=O)N[C@@H](C(=O)N1CCC[C@H]1C(=O)N[C@H](C(=O)N[C@@H](CCCCN)C(=O)N[C@@H](CC(C)C)C(=O)N[C@@H](CCCCNC(=O)CC[C@H](NC(=O)CCCCCCCCCCCCCCC(=O)O)C(=O)O)C(=O)N[C@@H](CCCCN)C(=O)N[C@H](C(=O)N[C@@H](CC(C)C)C(=O)N[C@@H](CC(C)C)C(=O)N[C@@H](CCC(=O)O)C(=O)N[C@@H](CCC(N)=O)C(=O)N[C@@H](CCC(=O)O)C(=O)N[C@@H](CCCCN)C(=O)N[C@@H](CCC(N)=O)C(=O)N[C@@H](CCCCN)C(=O)NC(C)(C)C(=O)N[C@@H](CCC(N)=O)C(=O)N[C@@H](CCCNC(=N)N)C(=O)N[C@@H](CCC(=O)O)C(=O)N[C@@H](CCC(N)=O)C(=O)N[C@@H](C)C(=O)N[C@@H](CCC(=O)O)C(=O)N[C@H](C(=O)N[C@@H](CC(N)=O)C(=O)NC(C)(C)C(=O)N[C@@H](CCC(N)=O)C(=O)N[C@H](C(=O)N[C@@H](CC(C)C)C(=O)N[C@@H](C)C(=O)N[C@@H](CCC(N)=O)C(=O)N[C@H](C(N)=O)C(C)C)[C@@H](C)CC)[C@@H](C)O)[C@@H](C)CC)[C@@H](C)CC)C(C)C)C(C)C [Cmpd 162] (Ac-IVLSLD[dV]PIKLK([γGlu-C16 diacid])KILLEQEKQK[Aib]QREQAETN[Aib]QILAQV-NH2)
2,< 4.00,CC[C@H](C)[C@H](NC(C)=O)C(=O)N[C@H](C(=O)N[C@@H](CC(C)C)C(=O)N[C@@H](CO)C(=O)N[C@@H](CC(C)C)C(=O)N[C@@H](CC(=O)O)C(=O)N[C@@H](C(=O)N1CCC[C@H]1C(=O)N[C@H](C(=O)N[C@@H](C)C(=O)N[C@@H](CC(C)C)C(=O)N[C@@H](CCCCNC(=O)CC[C@H](NC(=O)CCCCCCCCCCCCCCC(=O)O)C(=O)O)C(=O)N[C@@H](CCCCN)C(=O)N[C@H](C(=O)N[C@@H](CC(C)C)C(=O)N[C@@H](CC(C)C)C(=O)N[C@@H](CCC(=O)O)C(=O)N[C@@H](CCC(N)=O)C(=O)N[C@@H](CCC(=O)O)C(=O)N[C@@H](CCCCN)C(=O)N[C@@H](CCC(N)=O)C(=O)N[C@@H](CCCCN)C(=O)N[C@@H](CCCCN)C(=O)N[C@@H](CCC(N)=O)C(=O)N[C@@H](CCCNC(=N)N)C(=O)N[C@@H](CCC(=O)O)C(=O)N[C@@H](CCC(N)=O)C(=O)N[C@@H](C)C(=O)N[C@@H](CCC(=O)O)C(=O)N[C@H](C(=O)N[C@@H](CC(N)=O)C(=O)NC(C)(C)C(=O)N[C@@H](CCC(N)=O)C(=O)N[C@H](C(=O)N[C@@H](CC(C)C)C(=O)N[C@@H](C)C(=O)N[C@@H](CCC(N)=O)C(=O)N[C@H](C(N)=O)C(C)C)[C@@H](C)CC)[C@@H](C)O)[C@@H](C)CC)[C@@H](C)CC)C(C)C)C(C)C [Cmpd 163] (Ac-IVLSLD[dV]PIALK([γGlu-C16 diacid])KILLEQEKQKKQREQAETN[Aib]QILAQV-NH2)
3,< 4.00,CC[C@H](C)[C@H](NC(C)=O)C(=O)N[C@H](C(=O)N[C@@H](CC(C)C)C(=O)N[C@@H](CO)C(=O)N[C@@H](CC(C)C)C(=O)N[C@@H](CC(=O)O)C(=O)N[C@@H](C(=O)N1CCC[C@H]1C(=O)N[C@H](C(=O)N[C@@H](CCCCN)C(=O)N[C@@H](CC(C)C)C(=O)N[C@@H](CCCCNC(=O)CC[C@H](NC(=O)CCCCCCCCCCCCCCC(=O)O)C(=O)O)C(=O)N[C@@H](CCCCN)C(=O)N[C@H](C(=O)N[C@@H](CC(C)C)C(=O)N[C@@H](CC(C)C)C(=O)N[C@@H](CCC(=O)O)C(=O)N[C@@H](CCC(N)=O)C(=O)N[C@@H](CCC(=O)O)C(=O)N[C@@H](C)C(=O)N[C@@H](CCC(N)=O)C(=O)N[C@@H](CCCCN)C(=O)N[C@@H](CCCCN)C(=O)N[C@@H](CCC(N)=O)C(=O)N[C@@H](CCCNC(=N)N)C(=O)N[C@@H](CCC(=O)O)C(=O)N[C@@H](CCC(N)=O)C(=O)N[C@@H](C)C(=O)N[C@@H](CCC(=O)O)C(=O)N[C@H](C(=O)N[C@@H](CC(N)=O)C(=O)NC(C)(C)C(=O)N[C@@H](CCC(N)=O)C(=O)N[C@H](C(=O)N[C@@H](CC(C)C)C(=O)N[C@@H](C)C(=O)N[C@@H](CCC(N)=O)C(=O)N[C@H](C(N)=O)C(C)C)[C@@H](C)CC)[C@@H](C)O)[C@@H](C)CC)[C@@H](C)CC)C(C)C)C(C)C [Cmpd 165] (Ac-IVLSLD[dV]PIKLK([γGlu-C16 diacid])KILLEQEAQKKQREQAETN[Aib]QILAQV-NH2)
4,< 4.00,CC[C@H](C)[C@H](NC(C)=O)C(=O)N[C@H](C(=O)N[C@@H](CC(C)C)C(=O)N[C@@H](CO)C(=O)N[C@@H](CC(C)C)C(=O)N[C@@H](CC(=O)O)C(=O)N[C@@H](C(=O)N1CCC[C@H]1C(=O)N[C@H](C(=O)N[C@@H](CCCCN)C(=O)N[C@@H](CC(C)C)C(=O)N[C@@H](CCCCNC(=O)CC[C@H](NC(=O)CCCCCCCCCCCCCCC(=O)O)C(=O)O)C(=O)N[C@@H](CCCCN)C(=O)N[C@H](C(=O)N[C@@H](CC(C)C)C(=O)N[C@@H](CC(C)C)C(=O)N[C@@H](CCC(=O)O)C(=O)N[C@@H](CCC(N)=O)C(=O)N[C@@H](CCC(=O)O)C(=O)N[C@@H](CCCCN)C(=O)N[C@@H](CCC(N)=O)C(=O)N[C@@H](C)C(=O)N[C@@H](CCCCN)C(=O)N[C@@H](CCC(N)=O)C(=O)N[C@@H](CCCNC(=N)N)C(=O)N[C@@H](CCC(=O)O)C(=O)N[C@@H](CCC(N)=O)C(=O)N[C@@H](C)C(=O)N[C@@H](CCC(=O)O)C(=O)N[C@H](C(=O)N[C@@H](CC(N)=O)C(=O)NC(C)(C)C(=O)N[C@@H](CCC(N)=O)C(=O)N[C@H](C(=O)N[C@@H](CC(C)C)C(=O)N[C@@H](C)C(=O)N[C@@H](CCC(N)=O)C(=O)N[C@H](C(N)=O)C(C)C)[C@@H](C)CC)[C@@H](C)O)[C@@H](C)CC)[C@@H](C)CC)C(C)C)C(C)C [Cmpd 166] (Ac-IVLSLD[dV]PIKLK([γGlu-C16 diacid])KILLEQEKQAKQREQAETN[Aib]QILAQV-NH2)
5,< 4.30,CC[C@H](C)[C@H](NC(C)=O)C(=O)N[C@H](C(=O)N[C@@H](CC(C)C)C(=O)N[C@@H](CO)C(=O)N[C@@H](CC(C)C)C(=O)N[C@@H](CC(=O)O)C(=O)N[C@@H](C(=O)N1CCC[C@H]1C(=O)N[C@H](C(=O)N[C@@H](CCCCN)C(=O)N[C@@H](CC(C)C)C(=O)N[C@@H](CCCCNC(=O)CC[C@H](NC(=O)CCCCCCCCCCCCCCC(=O)O)C(=O)O)C(=O)N[C@@H](CCCCN)C(=O)N[C@H](C(=O)N[C@@H](CC(C)C)C(=O)N[C@@H](CC(C)C)C(=O)N[C@@H](CCC(=O)O)C(=O)N[C@@H](CCC(N)=O)C(=O)N[C@@H](CCC(=O)O)C(=O)N[C@@H](CCCCN)C(=O)N[C@@H](CCC(N)=O)C(=O)N[C@@H](CCCCN)C(=O)N[C@@H](CCCCN)C(=O)N[C@@H](CCC(N)=O)C(=O)N[C@@H](C)C(=O)N[C@@H](CCC(=O)O)C(=O)N[C@@H](CCC(N)=O)C(=O)N[C@@H](C)C(=O)N[C@@H](CCC(=O)O)C(=O)N[C@H](C(=O)N[C@@H](CC(N)=O)C(=O)NC(C)(C)C(=O)N[C@@H](CCC(N)=O)C(=O)N[C@H](C(=O)N[C@@H](CC(C)C)C(=O)N[C@@H](C)C(=O)N[C@@H](CCC(N)=O)C(=O)N[C@H](C(N)=O)C(C)C)[C@@H](C)CC)[C@@H](C)O)[C@@H](C)CC)[C@@H](C)CC)C(C)C)C(C)C [Cmpd 167] (Ac-IVLSLD[dV]PIKLK([γGlu-C16 diacid])KILLEQEKQKKQAEQAETN[Aib]QILAQV-NH2)
6,< 3.52,CC[C@H](C)[C@H](NC(C)=O)C(=O)N[C@H](C(=O)N[C@@H](CC(C)C)C(=O)N[C@@H](CO)C(=O)N[C@@H](CC(C)C)C(=O)N[C@@H](CC(=O)O)C(=O)N[C@@H](C(=O)N1CCC[C@H]1C(=O)N[C@H](C(=O)N[C@@H](CCCCN)C(=O)N[C@@H](CC(C)C)C(=O)N[C@@H](CCCCNC(=O)CC[C@H](NC(=O)CCCCCCCCCCCCCCC(=O)O)C(=O)O)C(=O)N[C@@H](CCCCN)C(=O)N[C@H](C(=O)N[C@@H](CC(C)C)C(=O)N[C@@H](CC(C)C)C(=O)N[C@@H](CCC(=O)O)C(=O)N[C@@H](CCC(N)=O)C(=O)N[C@@H](CCC(=O)O)C(=O)N[C@@H](CCCCN)C(=O)N[C@@H](CCC(N)=O)C(=O)N[C@@H](CCCCN)C(=O)N[C@@H](CCC(=O)O)C(=O)N[C@@H](CCC(N)=O)C(=O)N[C@@H](CCCNC(=N)N)C(=O)N[C@@H](CCC(=O)O)C(=O)N[C@@H](CCC(N)=O)C(=O)N[C@@H](C)C(=O)N[C@@H](CCC(=O)O)C(=O)N[C@H](C(=O)N[C@@H](CC(N)=O)C(=O)NC(C)(C)C(=O)N[C@@H](CCC(N)=O)C(=O)N[C@H](C(=O)N[C@@H](CC(C)C)C(=O)N[C@@H](C)C(=O)N[C@@H](CCC(N)=O)C(=O)N[C@H](C(N)=O)C(C)C)[C@@H](C)CC)[C@@H](C)O)[C@@H](C)CC)[C@@H](C)CC)C(C)C)C(C)C [Cmpd 168] (Ac-IVLSLD[dV]PIKLK([γGlu-C16 diacid])KILLEQEKQKEQREQAETN[Aib]QILAQV-NH2)
